# Results reported in US11180504B2 (ORCHID PHARMA LTD., priority 2016, dated 2021).
# How the values were obtained:
# [1] = tested on: methicillin-sensitive Staphylococcus aureus; test: MIC by broth micro-dilution (CLSI), methicillin-sensitive S. aureus; format: cell-based; conditions: Staphylococcus aureus, ATCC 29213 / MSSA, MSSA S. aureus ATCC29213; read-out: MIC
# [2] = tested on: carbapenem sensitive Escherichia coli; test: MIC by broth micro-dilution (CLSI), carbapenem sensitive E. coli; format: cell-based; conditions: Escherichia coli, ATCC25922, ESBL −ve E. coli ATCC25922; read-out: MIC
# [3] = tested on: carbapenemase producing K. pneumoniae; test: MIC by broth micro-dilution (CLSI), carbapenemase producing K. pneumoniae; format: cell-based, Klebsiella pneumoniae; conditions: Klebsiella pneumoniae, ATCCBAA1705, KPC-2 K. pneumoniae ATCC BAA-1705; read-out: MIC
# [4] = tested on: carbapenem sensitive Pseudomonas aeruginosa; test: MIC by broth micro-dilution (CLSI), carbapenem sensitive P. aeruginosa; format: cell-based; conditions: Pseudomonas aeruginosa, ATCC27853, Meropenem susceptible P. aeruginosa ATCC27853; read-out: MIC
Structure (SMILES),MIC [1] [µg/mL],MIC [2] [µg/mL],MIC [3] [µg/mL],MIC [4] [µg/mL]
CCCCN[C@H](C)[C@H]1C(=O)N2C(C(=O)O)=C(S[C@@H]3CN[C@H](C(=O)N(C)C)C3)[C@H](C)[C@H]12 [Example 274],32,16,16,> 128
C[C@@H](NC(=O)Cn1cnnn1)[C@H]1C(=O)N2C(C(=O)O)=C(S[C@@H]3CN[C@H](C(=O)N(C)C)C3)[C@H](C)[C@H]12 [Example 283],16,0.25,0.5,8
"C[C@@H](NC(=O)Cn1cnnn1)[C@H]1C(=O)N2C(C(=O)O)=C(S[C@@H]3CN[C@H](C(=O)N4CC5CCNC5(CO)C4)C3)[C@H](C)[C@H]12 (single isomer, unassigned) [Example 555]",4,0.25,1,2
"C[C@@H](NC(=O)Cn1cnnn1)[C@H]1C(=O)N2C(C(=O)O)=C(S[C@@H]3CN[C@H](C(=O)N4CCC(N)(CO)C4)C3)[C@H](C)[C@H]12 (single isomer, unassigned) [Example 496]",2,0.25,2,2
"C[C@@H](NC(=O)Cn1nnc(C(F)(F)F)n1)[C@H]1C(=O)N2C(C(=O)O)=C(S[C@@H]3CN[C@H](C(=O)N4CC[C@@H](N)C4)C3)[C@H](C)[C@H]12 [Example 334, (4R,5S,6R)-3-((3S,5S)-5-((R)-3-aminopyrrolidine-1-carbonyl)pyrrolidin-3-ylthio)-4-methyl-7-oxo-6-((R) - 1-(2-(5-(trifluoromethyl)-2H-tetrazol-2-yl)acetamido)ethyl) - 1-azabicyclo[3.2.0]hept-2-ene-2-carboxylic acid]",4,0.5,32,128
"C[C@@H](NC(=O)Cn1cnnn1)[C@H]1C(=O)N2C(C(=O)O)=C(S[C@@H]3CN[C@H](C(=O)N4CCC5NCCCC5C4)C3)[C@H](C)[C@H]12 (single isomer, unassigned) [Example 482]",4,0.25,4,4
"C[C@@H](NC(=O)Cn1cnnn1)[C@H]1C(=O)N2C(C(=O)O)=C(S[C@@H]3CN[C@H](C(=O)N4CCC(N)(CC#N)CC4)C3)[C@H](C)[C@H]12 [Example 371, (4R,5S,6R)-6-((R)-1-(2-(1H-tetrazol-1-yl)acetamido)ethyl)-3-((3S,5S)-5-(4-amino-4-(cyanomethyl)piperidine-1-carbonyl)pyrrolidin-3-ylthio)-4-methyl-7-oxo-1-azabicyclo[3.2.0]hept-2-ene-2-carboxylic acid]",16,1,4,64
"C[C@@H](NC(=O)Cn1cnnn1)[C@H]1C(=O)N2C(C(=O)O)=C(S[C@@H]3CN[C@H](C(=O)N4CC[N+](C)(CCN)CC4)C3)[C@H](C)[C@H]12.[I-] [Example 375, 4-((2S,4S)-4-((4R,5S,6R)-6-((R)-1-(2-(1H-tetrazol-1-yl)acetamido)ethyl)-2-carboxy-4-methyl-7-oxo-1-azabicyclo[3.2.0]hept-2-en-3-ylthio)pyrrolidine-2-carbonyl)-1-(2-aminoethyl)-1-methylpiperazin-1-ium iodide]",16,2,8,4
"C[C@@H](NC(=O)Cn1nc(C(F)(F)F)nc1N)[C@H]1C(=O)N2C(C(=O)O)=C(S[C@@H]3CN[C@H](C(=O)N4CC[C@@H](N)C4)C3)[C@H](C)[C@H]12 [Example 317, (4R,5S,6R)-6-((R) - 1-(2-(5-amino-3-(trifluoromethyl) - 1H-1,2,4-triazol-1-yl)acetamido)ethyl)-3-((3S,5S)-5-((R)-3-aminopyrrolidine-1-carbonyl)pyrolidin-3-ylthio)-4-methyl-7-oxo-1-azabicyclo[3.2.0]hept-2-ene-2-carboxylic acid]",2,0.5,8,128
"C[C@@H](NC(=O)CN1CCC(F)(F)C1)[C@H]1C(=O)N2C(C(=O)O)=C(S[C@@H]3CN[C@H](C(=O)N(C)C)C3)[C@H](C)[C@H]12 [Example 512, (4R,5S,6R)-6-((R)-1-(2-(3,3-difluoropyrrolidin-1-yl)acetamido)ethyl)-3-((3S,5S)-5-(dimethylcarbamoyl)pyrrolidin-3-ylthio)-4-methyl-7-oxo-1-azabicyclo[3.2.0]hept-2-ene-2-carboxylic acid]",8,2,64,> 128
"C[C@@H](NC(=O)Cn1cnnn1)[C@H]1C(=O)N2C(C(=O)O)=C(S[C@@H]3CN[C@H](C(=O)N4C[C@H](N)[C@@H](O)[C@H]4CO)C3)[C@H](C)[C@H]12 [Example 549, (4R,5S,6R)-6-((R)-1-(2-(1H-tetrazol-1-yl)acetamido)ethyl)-3-((3S,5S)-5-((2R,3R,4S)-4-amino-3-hydroxy-2-(hydroxymethyl)pyrrolidine-1-carbonyl)pyrrolidin-3-ylthio)-4-methyl-7-oxo-1-azabicyclo[3.2.0]hept-2-ene-2-carboxylic acid]",4,0.125,1,1
"C[C@@H](NC(=O)Cn1cnnn1)[C@H]1C(=O)N2C(C(=O)O)=C(S[C@@H]3CN[C@H](C(=O)N4CC5C[C@@H]6C[C@]5(CN6)C4)C3)[C@H](C)[C@H]12 (stereo partly drawn) [Example 564, (4R,5S,6R)-6-((R)-1-(2-(1H-tetrazol-1-yl)acetamido)ethyl)-3-((3S,5S)-5-((1S,7R)-3,8-Diaza-tricyclo[5.2.1.01,5]decane-3-carbonyl)-pyrrolidin-3-ylthio)-4-methyl-7-oxo-1-azabicyclo[3.2.0]hept-2-ene-2-carbnxylic acid]",2,0.125,1,1
"C[C@@H](NC(=O)Cn1cnnn1)[C@H]1C(=O)N2C(C(=O)O)=C(CN3C[C@H](NC(=N)N)[C@@H](O)C3)[C@H](C)[C@H]12 [Example 600, (4S,5R,6R)-6-((R)-1-(2-(1H-tetrazol-1-yl)acetamido)ethyl)-3-(((3S,4S)-3-guanidino-4-hydroxypyrrolidin-1-yl)methyl)-4-methyl-7-oxo-1-azabicyclo[3.2.0]hept-2-ene-2-carboxylic acid]",0.5,0.5,4,16
"C[C@@H](NC(=O)Cn1nnnc1C(F)F)[C@H]1C(=O)N2C(C(=O)O)=C(S[C@@H]3CN[C@H](C(=O)N(C)C)C3)[C@H](C)[C@H]12 [Example 350, (4R,5S,6R)-6-((R)-1-(2-(5-(difluoromethyl)-1H-tetrazol-1-yl)acetamido)ethyl)-3-((3S,5S)-5-(dimethylcarbamoyl)pyrrolidin-3-ylthio)-4-methyl-7-oxo-1-azabicyclo[3.2.0]hept-2-ene-2-carboxylic acid]",2,0.25,1,128
"C[C@@H](NC(=O)Cn1cnnn1)[C@H]1C(=O)N2C(C(=O)O)=C(S[C@@H]3CN[C@H](C(=O)N4CC[N+](C)(CC(N)=O)CC4)C3)[C@H](C)[C@H]12.[I-] [Example 363, 4-((2S,4S)-4-((4R,5S,6R)-6-((R)-1-(2-(1H-tetrazol-1-yl)acetamido)ethyl)-2-carboxy-4-methyl-7-oxo-1-azabicyclo[3.2.0]hept-2-en-3-ylthio)pyrrolidine-2-carbonyl)-1-(2-amino-2-oxoethyl)-1-methylpiperazin-1-ium iodide]",4,0.25,2,1
"C[C@@H](NC(=O)Cn1cncn1)[C@H]1C(=O)N2C(C(=O)O)=C(S[C@@H]3CN[C@H](C(=O)N4CCNCC4)C3)[C@H](C)[C@H]12 [Example 314, (4R,5S,6R)-6-((R) - 1-(2-(1H-tetrazol-1-yl)acetamido)ethyl)-4-methyl-7-oxo-3-((3S,5S)-5-(piperazine-1-carbonyl)pyrrolidin-3-ylthio) - 1-azabicyclo[3.2.0]hept-2-ene-2-]",4,0.25,2,4
"C[C@@H](NC(=O)Cn1cnnn1)[C@H]1C(=O)N2C(C(=O)O)=C(S[C@@H]3CN[C@H](C(=O)N4CCC(F)(CN)CC4)C3)[C@H](C)[C@H]12 [Example 346, (4R,5S,6R)-6-((R) - 1-(2-(1H-tetrazol-1-yl)acetamido)ethyl)-3-((3S,5S)-5-(4-(aminomethyl)-4-fluoropiperidine-1-carbonyl)pyrrolidin-3-ylthio)-4-methyl-7-oxo-1-azabicyclo[3.2.0]hept-2-ene-2-carboxylic acid]",16,1,8,16
"C[C@@H](NC(=O)Cn1cnnn1)[C@H]1C(=O)N2C(C(=O)O)=C(S[C@@H]3CN[C@H](C(=O)N4CCN(CCO)CC4)C3)[C@H](C)[C@H]12 [Example 416, (4R,5S,6R)-6-((R)-1-(2-(1H-tetrazol-1-yl)acetamido)ethyl)-3-((3S,5S)-5-(4-(2-hydroxyethyl)piperazine-1-carbonyl)pyrrolidin-3-ylthio)-4-methyl-7-oxo-1-azabicyclo[3.2.0]hept-2-ene-2-carboxylic acid]",4,0.5,2,8
C[C@@H](NC(=O)C(F)F)[C@H]1C(=O)N2C(C(=O)O)=C(SC[C@@H]3C[C@H](NS(N)(=O)=O)CN3)[C@H](C)[C@H]12 [Example 267],0.5,1,2,> 128
